Assay results: publication PMC12669672, “Structural insights into selective and dual antagonism of EP2 and EP4 prostaglandin receptors” (The EMBO Journal, 2025)
Where “and” joins values, the source holds several entries; their conditions need not be identical. Equal entries are not always repeated. Where two headings read alike, the source gives them in different places.

Key:
Assay type in all cases: cell-based
EP2-I85V = target: T1, EP2-I85V (Homo sapiens, UniProt P43116, I85V); experiment: GloSensor cAMP assay, antagonism of PGE2-induced cAMP, chimeric studies; conditions: single experiments 1st-3rd
T1 construct: The full-length EP2 or EP4 was cloned into the pcDNA3.1 vector; FLAG (N); expressed in transfected cells; host or cells: AD293 cells
Procedure: (§1) The full-length EP2 or EP4 was cloned into the pcDNA3.1 vector (Invitrogen), incorporating an N-terminal FLAG tag. AD293 cells were seeded in six-well plates containing DMEM supplemented with 10% dialyzed FBS 1 day prior to transfection. Following overnight growth, cells were transfected with a 1:1 ratio of receptor construct and GloSensor22F cAMP biosensor (Promega) plasmids.
(§2) Twenty-four hours post-transfection, the cells were transferred to CO2-independent media containing 2% GloSensor cAMP Reagent (Promega) and distributed into 384-well assay plates at a density of 4000 cells per well in 10 μL. […] The plates were then incubated at 37 °C for an additional hour before luminescence measurements were taken using an EnVision plate reader.
(§3) Data analysis was performed using GraphPad Prism software v8.0.1. A nonlinear regression analysis, employing a sigmoidal dose–response model, was conducted to determine the Emax values and half-maximum inhibitory concentrations (IC50) for each compound tested.

EP2-M116L = target: T2, EP2-M116L (Homo sapiens, UniProt P43116, M116L); experiment: as above; conditions: single experiments 1st-3rd
T2 construct: The full-length EP2 or EP4 was cloned into the pcDNA3.1 vector; FLAG (N); expressed in transfected cells; host or cells: AD293 cells
Procedure: as §1, §2, §3

EP2-L301I = target: T3, EP2-L301I (Homo sapiens, UniProt P43116, L301I); experiment: as above; conditions: single experiments 1st-3rd
T3 construct: The full-length EP2 or EP4 was cloned into the pcDNA3.1 vector; FLAG (N); expressed in transfected cells; host or cells: AD293 cells
Procedure: as §1, §2, §3

[1] = target: T4, constitutively active EP2 WT (Homo sapiens, UniProt P43116); experiment: GloSensor cAMP assay, inhibition of constitutive activity
T4 construct: The full-length EP2 or EP4 was cloned into the pcDNA3.1 vector; FLAG (N); expressed in transfected cells; host or cells: AD293 cells
Procedure: as §1, §2, §3

[2] = target: T5, constitutively active EP2 S308A (Homo sapiens, UniProt P43116, S308A); experiment: as above
T5 construct: The full-length EP2 or EP4 was cloned into the pcDNA3.1 vector; FLAG (N); expressed in transfected cells; host or cells: AD293 cells
Procedure: as §1, §2, §3

[3] = target: T6, constitutively active EP4 S319A (Homo sapiens, UniProt P35408, S319A); experiment: as above
T6 construct: The full-length EP2 or EP4 was cloned into the pcDNA3.1 vector (Invitrogen), incorporating an N-terminal FLAG tag; expressed in transfected cells; host or cells: AD293
Procedure: as §1, §2, §3

[4] = target: T7, constitutively active EP4 V72A (Homo sapiens, UniProt P35408, V72A); experiment: as above
T7 construct: The full-length EP2 or EP4 was cloned into the pcDNA3.1 vector (Invitrogen), incorporating an N-terminal FLAG tag; expressed in transfected cells; host or cells: AD293
Procedure: as §1, §2, §3

[5] = 1 h, ligand log([M]) -6, Fig. S7B, read-out: % cAMP activity (normalized to WT)
[6] = 1 h, ligand log([M]) -10, Fig. S7B, read-out: % cAMP activity (normalized to WT)
[7] = 1 h, ligand log([M]) -11, Fig. S7B, read-out: % cAMP activity (normalized to WT)
[8] = 1 h, ligand log([M]) -5, Fig. S7B, read-out: % cAMP activity (normalized to WT)
[9] = 1 h, ligand log([M]) -12, Fig. S7B, read-out: % cAMP activity (normalized to WT)

T2 sequence (P43116 whole entry M116L): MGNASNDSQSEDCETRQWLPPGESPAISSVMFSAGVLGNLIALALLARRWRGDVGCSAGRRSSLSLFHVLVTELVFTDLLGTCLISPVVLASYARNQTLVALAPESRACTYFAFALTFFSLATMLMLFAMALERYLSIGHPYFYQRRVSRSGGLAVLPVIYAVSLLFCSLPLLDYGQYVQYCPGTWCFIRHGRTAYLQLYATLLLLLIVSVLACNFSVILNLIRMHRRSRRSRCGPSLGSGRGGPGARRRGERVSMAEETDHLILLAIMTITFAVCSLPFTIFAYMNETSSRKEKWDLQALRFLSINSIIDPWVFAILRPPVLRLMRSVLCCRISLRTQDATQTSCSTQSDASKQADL
T4 sequence (P43116 whole entry): as the sequence (P43116 whole entry M116L) above, with L116M counted along it
T6 sequence (P35408 whole entry S319A): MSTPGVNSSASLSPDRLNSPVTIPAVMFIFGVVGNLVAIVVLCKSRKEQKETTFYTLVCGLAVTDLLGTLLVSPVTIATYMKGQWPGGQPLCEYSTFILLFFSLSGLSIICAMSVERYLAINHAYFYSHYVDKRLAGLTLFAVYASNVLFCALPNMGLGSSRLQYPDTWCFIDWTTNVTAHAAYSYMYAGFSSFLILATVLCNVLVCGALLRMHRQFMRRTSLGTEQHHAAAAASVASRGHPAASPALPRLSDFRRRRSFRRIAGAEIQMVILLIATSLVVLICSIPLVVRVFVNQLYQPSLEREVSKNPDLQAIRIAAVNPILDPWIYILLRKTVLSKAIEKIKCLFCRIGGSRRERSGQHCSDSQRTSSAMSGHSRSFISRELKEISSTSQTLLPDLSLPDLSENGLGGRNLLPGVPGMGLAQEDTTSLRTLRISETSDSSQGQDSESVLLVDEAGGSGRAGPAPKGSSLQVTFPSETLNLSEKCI
T1 sequence (P43116 whole entry I85V): as the sequence (P43116 whole entry M116L) above, with I85V, L116M counted along it
T7 sequence (P35408 whole entry V72A): as the sequence (P35408 whole entry S319A) above, with V72A, A319S counted along it
T5 sequence (P43116 whole entry S308A): as the sequence (P43116 whole entry M116L) above, with L116M, S308A counted along it
T3 sequence (P43116 whole entry L301I): as the sequence (P43116 whole entry M116L) above, with L116M, L301I counted along it

remaining activity at 1 µM (EP2-I85V; [5]): 12.2% | remaining activity at 0.0001 µM (EP2-I85V; [6]): 102% | remaining activity at 10 pM (EP2-I85V; [7]): 108% | cAMP activity (∆pIC50 from EP2 WT) (EP2-I85V; Appendix Fig. S7A): -0.555 and -0.639 and -0.556 | remaining activity at 10 µM (EP2-M116L; [8]): 12.1% | remaining activity at 0.0001 µM (EP2-M116L; [6]): 107% | remaining activity at 10 pM (EP2-M116L; [7]): 124% | remaining activity at 1 pM (EP2-M116L; [9]): 116% | cAMP activity (∆pIC50 from EP2 WT) (EP2-M116L; Appendix Fig. S7A): -0.454 and -0.463 and -0.341 | remaining activity at 10 µM (EP2-L301I; [8]): 16.7% | remaining activity at 1 µM (EP2-L301I; [5]): 17.9% | remaining activity at 0.1 µM (EP2-L301I; 1 h, ligand log([M]) -7, Fig. S7B, read-out: % cAMP activity (normalized to WT)): 74.8% | remaining activity at 0.0001 µM (EP2-L301I; [6]): 111% | remaining activity at 10 pM (EP2-L301I; [7]): 123% | remaining activity at 1 pM (EP2-L301I; [9]): 120% | cAMP activity (∆pIC50 from EP2 WT) (EP2-L301I; Appendix Fig. S7A): -0.046 and -0.334 and -0.171 | IC50 [1]: 0.0871 µM | remaining activity at 10 µM ([1]; 1 h, TG6-129 log([M]) -5, EP2-WT, read-out: % cAMP activity (normalized to WT)): 3.2% | remaining activity at 1 µM ([1]; 1 h, TG6-129 log([M]) -6, EP2-WT, read-out: % cAMP activity (normalized to WT)): 6.32% | remaining activity at 0.1 µM ([1]; 1 h, TG6-129 log([M]) -7, EP2-WT, read-out: % cAMP activity (normalized to WT)): 34.4% | remaining activity at 0.001 µM ([1]; 1 h, TG6-129 log([M]) -9, EP2-WT, read-out: % cAMP activity (normalized to WT)): 94.3% | remaining activity at 0.0001 µM ([1]; 1 h, TG6-129 log([M]) -10, EP2-WT, read-out: % cAMP activity (normalized to WT)): 104% | remaining activity at 10 pM ([1]; 1 h, TG6-129 log([M]) -11, EP2-WT, read-out: % cAMP activity (normalized to WT)): 100% | remaining activity at 1 pM ([1]; 1 h, TG6-129 log([M]) -12, EP2-WT, read-out: % cAMP activity (normalized to WT)): 88.6% | TG6-129 cAMP activity (∆pIC50 from EP2 WT) ([1]; WT, single experiments 1st-3rd): -0.062 and 0.053 and 0.096 | IC50 [2]: 0.0589 µM | remaining activity at 0.0001 µM ([2]; 1 h, TG6-129 log([M]) -10, EP2-S308A, read-out: % cAMP activity (normalized to WT)): 87.7% | TG6-129 cAMP activity (∆pIC50 from EP2 WT), Mean ([2]; S308A, Mean): 0.246 | IC50 [3]: 20 µM | remaining activity at 100 µM ([3]; 1 h, TG6-129 log([M]) -4.00, EP4-S319A, read-out: % cAMP activity (normalized to WT)): 6.8% | remaining activity at […] ([3]; 1 h, TG6-129 log([M]) -4.70, EP4-S319A, read-out: % cAMP activity (normalized to WT)): 46.6% | remaining activity at 0.006457 µM ([3]; 1 h, TG6-129 log([M]) -8.19, EP4-S319A, read-out: % cAMP activity (normalized to WT)): 114% | remaining activity at 0.001288 µM ([3]; 1 h, TG6-129 log([M]) -8.89, EP4-S319A, read-out: % cAMP activity (normalized to WT)): 108% | TG6-129 cAMP activity (∆pIC50 from EP4 WT), Mean ([3]; S319A, Mean): -0.460 | TG6-129 cAMP activity (∆pIC50 from EP4 WT) ([3]; S319A, single experiments 1st-3rd): -0.435 and -0.502 and -0.443 | ΔpIC50 ([3]; no PGE2, pIC50 mutant - pIC50 WT, mean): -0.46 ± 0.02 | IC50 [4]: 18.6 µM | remaining activity at 100 µM ([4]; 1 h, TG6-129 log([M]) -4.00, EP4-V72A, read-out: % cAMP activity (normalized to WT)): 9.67% | remaining activity at […] ([4]; 1 h, TG6-129 log([M]) -4.70, EP4-V72A, read-out: % cAMP activity (normalized to WT)): 26.1% | remaining activity at […] ([4]; 1 h, TG6-129 log([M]) -5.40, EP4-V72A, read-out: % cAMP activity (normalized to WT)): 41.3% | remaining activity at […] ([4]; 1 h, TG6-129 log([M]) -6.10, EP4-V72A, read-out: % cAMP activity (normalized to WT)): 40.6%
SMILES: CCc1nnc(NS(=O)(=O)c2ccc(NC(=S)NC(=O)/C=C/c3ccc(F)cc3)cc2)s1 [TG6-129]
